In PMC11711195, “The non-nutritive sweetener rebaudioside a enhances phage infectivity” (Scientific Reports, 2025):

Target: T1, gp31 (Klebsiella phage KP32, UniProt D1L2W4)
T1 construct: gene 31; recombinant from bacterial expression, His-tag (and MBP) removed by TEV protease
T1 sequence (D1L2W4 1-192): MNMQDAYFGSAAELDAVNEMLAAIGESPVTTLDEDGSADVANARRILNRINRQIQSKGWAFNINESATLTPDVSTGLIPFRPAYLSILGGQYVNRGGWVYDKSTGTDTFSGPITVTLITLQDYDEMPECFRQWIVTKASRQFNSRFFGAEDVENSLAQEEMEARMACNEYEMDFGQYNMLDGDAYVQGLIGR
Experiment: RedStarch hydrolysis, absorbance […] nm
Type: biochemical
Settings: activator; RedStarch 2% w/v stock; 50 µL gp31 4.673 µM plus 50 µL rebA 14.019 µM; 20 °C, 72 h

Q: C=C1C[C@@]23CC[C@H]4[C@@](C)(CCC[C@@]4(C)C(=O)O[C@@H]4O[C@H](CO)[C@@H](O)[C@H](O)[C@H]4O)[C@@H]2CC[C@]1(O[C@@H]1O[C@H](CO)[C@@H](O)[C@H](O[C@@H]2O[C@H](CO)[C@@H](O)[C@H](O)[C@H]2O)[C@H]1O[C@@H]1O[C@H](CO)[C@@H](O)[C@H](O)[C@H]1O)C3 [rebA] was tested. Which increment of activity did it give?
A: 51.14%
